From patent US20200163984A1, “USE OF ISOVALERYL SPIRAMYCIN I, II AND/OR III IN MANUFACTURING MEDICAMENT FOR TREATING AND/OR PREVENTING TUMOR, AND MEDICAMENT” (SHENYANG FUYANG PHARMACEUTICAL TECHNOLOGY CO., LTD., priority 2017, published 2020)
Where two headings read alike, the source gives them in different places.

Experiments:
[1] = test system: transplanted tumor of human pancreatic cancer cell PANC-1; test: PANC-1 transplanted tumor in nude mice; conditions: for Tumor Volume (mm3) (d 1): d1
Experimental: (§1) Then cell concentration was adjusted to 1×10^7/ml with matrigel, then each nude mouse was inoculated subcutaneously with 0.2 ml of cells at its right armpit and recorded as the first day of inoculation. When the tumor grows to be greater than or equal to 100 mm^3, the mice were randomly divided into 11 groups with 6 mice in each group: a model group, a cyclophosphamide group, isovaleryl spiramycin I groups with doses of 25, 50 and 100 mg/kg, isovaleryl spiramycin II groups with doses of 25, 50 and 100 mg/kg, and isovaleryl spiramycin III groups with doses of 25, 50 and 100 mg/kg. Each group was continuously administered intragastrically for 30 days with a dose of 20 ml/kg. The mice were sacrificed the next day after drug withdrawal and the indicators were tested. The long diameter and short diameter of the tumor, and the body weight of each mouse were recorded every 3 days from drug administration to nude mouse sacrifice.
(§2) The body weight of the nude mice and the long diameter (a) and short diameter (b) of the transplanted tumor were measured every 3 days, and the tumor volume (v), relative tumor volume (RTV) and relative tumor proliferation rate (T/C) are calculated respectively according to the following formulas, wherein V=a×b^2/2; RTV=V/V0 (V0 is the tumor volume before administration, V is the tumor volume before sacrifice), and T/C (%)=treatment group RTV/model control group RTV×100%.
(§3) Each mouse was weighed and sacrificed. After the tumor was completely stripped off from the body of the mouse, the non-tumor tissues such as blood stains and fat were removed to weigh the tumor and calculate the tumor growth inhibition rate. The average tumor weight of each group of mice is used as an indicator of efficacy. Tumor growth inhibition rate (%)=(1−the average tumor weight of the treatment group/the average tumor weight of the model group)×100%.

[2] = test system: transplanted tumor of human esophageal cancer cell TE-1; test: TE-1 transplanted tumor in nude mice
Experimental: as §1, §2, §3

[3] = test system: transplanted tumor of human non-small cell lung cancer cell H1299
Experimental: as §1, with “group:” for “group: a model group, a cyclophosphamide group,”
as §2, §3

[4] = test system: transplanted tumor of human large cell lung cancer H460 cells; test: H460 transplanted tumor in nude mice
Experimental: as §1, with “group:” for “group: a model group, a cyclophosphamide group,”
as §2, §3

[5] = PANC-1, 12.5 mg/kg (low dose) i.g. 30 days
[6] = PANC-1, 25 mg/kg (medium dose) i.g. 30 days
[7] = PANC-1, 50 mg/kg (high dose) i.g. 30 days
[8] = TE-1, 12.5 mg/kg (low dose) i.g. 30 days
[9] = TE-1, 25 mg/kg (medium dose) i.g. 30 days
[10] = TE-1, 50 mg/kg (high dose) i.g. 30 days
[11] = H1299, 25 mg/kg (low dose) i.g. 30 days
[12] = H1299, 50 mg/kg (medium dose) i.g. 30 days
[13] = H1299, 100 mg/kg (high dose) i.g. 30 days
[14] = H460, 25 mg/kg (low dose) i.g. 30 days
[15] = H460, 50 mg/kg (medium dose) i.g. 30 days
[16] = H460, 100 mg/kg (high dose) i.g. 30 days

## CCC(=O)O[C@@H]1CC(=O)O[C@H](C)C/C=C/C=C/[C@H](O[C@H]2CC[C@H](N(C)C)[C@@H](C)O2)[C@H](C)C[C@H](CC=O)[C@H](O[C@@H]2O[C@H](C)[C@@H](O[C@H]3C[C@@](C)(O)[C@@H](OC(=O)CC(C)C)[C@H](C)O3)[C@H](N(C)C)[C@H]2O)[C@H]1OC [Isovaleryl spiramycin III, isovaleryl spiramycin III]
[1]; [5]
  Inhibition Rate (tumor growth inhibition rate): 26.75%
  Tumor Weight: 1.99 ± 0.81 g
[1]; [6]
  Inhibition Rate (tumor growth inhibition rate): 39.09%
  Tumor Weight: 1.66 ± 0.66 g
[1]; PANC-1, 25 mg/kg (medium dose) i.g. 30 days, listed as isovaleryl spiramycin III
  Inhibition Rate (tumor growth inhibition rate): 39.08%
[1]; [7]
  Inhibition Rate (tumor growth inhibition rate): 61.78%
  Tumor Weight: 1.03 ± 0.54 g
[1]; PANC-1, high dose i.g. 30 days
  Relative Tumor Proliferation Rate (T/C): 34.91%
[1]; PANC-1, low dose i.g. 30 days
  Relative Tumor Proliferation Rate (T/C): 75.03%
[1]; PANC-1, low, medium and high doses, P<0.05
  tumor volume and relative tumor volume compared with the model group: significantly lower
[1]; PANC-1, medium dose i.g. 30 days
  Relative Tumor Proliferation Rate (T/C): 54.92%
[1]; PANC-1 nude mice, 12.5 mg/kg
  Relative Tumor Proliferation Rate (T/C): 75.03%
  Relative Tumor Volume (RTV): 13.13 ± 3.15
  Tumor Volume (mm3) (d 1): 137.99 ± 20.99 mm3
  Tumor Volume (mm3) (d30): 1758.49 ± 129.06 mm3
[1]; PANC-1 nude mice, 25 mg/kg
  Relative Tumor Proliferation Rate (T/C): 54.92%
  Relative Tumor Volume (RTV): 9.61 ± 1.66
  Tumor Volume (mm3) (d 1): 109.95 ± 13.42 mm3
  Tumor Volume (mm3) (d30): 1043.33 ± 113.01 mm3
[1]; PANC-1 nude mice, 50 mg/kg
  Relative Tumor Proliferation Rate (T/C): 34.90%
  Relative Tumor Volume (RTV): 5.17 ± 0.64
  Tumor Volume (mm3) (d 1): 113.14 ± 9.02 mm3
  Tumor Volume (mm3) (d30): 684.21 ± 115.00 mm3
[1]; mouse, in vivo
  mouse weight compared with the model group: no significant changes
[2]; [8]
  Inhibition Rate (tumor growth inhibition rate): 22.64%
  Relative Tumor Proliferation Rate (T/C): 66.52%
  Relative Tumor Volume (RTV): 6.03 ± 5.27
  Tumor Volume (d 1): 173.45 ± 63.55 mm3
  Tumor Volume (d 30): 1254.78 ± 637.73 mm3
  Tumor Weight: 1.21 ± 0.53 g
[2]; [9]
  Inhibition Rate (tumor growth inhibition rate): 40.17%
  Relative Tumor Proliferation Rate (T/C): 50.71%
  Relative Tumor Volume (RTV): 5.02 ± 6.81
  Tumor Volume (d 1): 206.72 ± 79.72 mm3
  Tumor Volume (d 30): 1140.10 ± 819.08 mm3
  Tumor Weight: 0.94 ± 0.39 g
[2]; [10]
  Inhibition Rate (tumor growth inhibition rate): 65.46%
  Relative Tumor Proliferation Rate (T/C): 30.72%
  Relative Tumor Volume (RTV): 3.60 ± 1.29
  Tumor Volume (d 1): 331.09 ± 208.02 mm3
  Tumor Volume (d 30): 1106.23 ± 865.11 mm3
  Tumor Weight: 0.54 ± 0.22 g
[2]; TE-1, low, medium and high doses, P<0.05
  tumor volume and relative tumor volume compared with the model group: significantly lower
[2]; mouse, in vivo
  mouse weight compared with the model group: no significant changes
[3]; [11]
  Inhibition Rate (tumor growth inhibition rate): 13.11%
  Relative Tumor Proliferation Rate (T/C): 89.88%
  Relative Tumor Volume (RTV): 11.52 ± 2.51
  Tumor Volume (d 1): 137.58 ± 14.95 mm3
  Tumor Volume (d 30): 1565.97 ± 277.97 mm3
  Tumor Weight: 1.51 ± 0.30 g
[3]; [12]
  Inhibition Rate (tumor growth inhibition rate): 49.38%
  Relative Tumor Proliferation Rate (T/C): 48.11%
  Relative Tumor Volume (RTV): 6.17 ± 2.64
  Tumor Volume (d 1): 137.82 ± 17.12 mm3
  Tumor Volume (d 30): 816.87 ± 299.03 mm3
  Tumor Weight: 0.88 ± 0.20 g
[3]; [13]
  Inhibition Rate (tumor growth inhibition rate): 62.78%
  Relative Tumor Proliferation Rate (T/C): 32.43%
  Relative Tumor Volume (RTV): 4.16 ± 1.90
  Tumor Volume (d 1): 137.09 ± 12.95 mm3
  Tumor Volume (d 30): 557.82 ± 209.73 mm3
  Tumor Weight: 0.65 ± 0.17 g
[3]; H1299, low, medium and high doses, P<0.05
  tumor volume and relative tumor volume compared with the model group: significantly lower
[3]; mouse, in vivo
  mouse weight compared with the model group: no significant changes
[4]; [14]
  Inhibition Rate (tumor growth inhibition rate): 17.41%
  Relative Tumor Proliferation Rate (T/C): 63.03%
  Relative Tumor Volume (RTV): 6.62 ± 2.34
  Tumor Volume (d 1): 140.44 ± 14.04 mm3
  Tumor Volume (d 30): 914.05 ± 279.14 mm3
  Tumor Weight: 1.42 ± 0.26 g
[4]; [15]
  Inhibition Rate (tumor growth inhibition rate): 23.31%
  Relative Tumor Proliferation Rate (T/C): 42.54%
  Relative Tumor Volume (RTV): 4.47 ± 0.94
  Tumor Volume (d 1): 148.59 ± 14.47 mm3
  Tumor Volume (d 30): 666.74 ± 160.61 mm3
  Tumor Weight: 1.32 ± 0.25 g
[4]; [16]
  Inhibition Rate (tumor growth inhibition rate): 63.93%
  Relative Tumor Proliferation Rate (T/C): 35.95%
  Relative Tumor Volume (RTV): 3.78 ± 0.84
  Tumor Volume (d 1): 143.19 ± 17.40 mm3
  Tumor Volume (d 30): 531.56 ± 78.33 mm3
  Tumor Weight: 0.62 ± 0.26 g
[4]; H460, low, medium and high doses, P<0.05
  tumor volume and relative tumor volume compared with the model group: significantly lower
[4]; mouse, in vivo
  mouse weight compared with the model group: no significant changes
